{
  "source": "PubChem BioAssay AID850",
  "about": "(SRMLSC, 2007)",
  "note": "pIC50: −log10 of the molar value. Activity calls are given as the source filed them. How the calls were made is not given here.",
  "data": [
    {"system": "not listed separately", "assay": "yeast lifespan-shortening chemical project counter-assay, dose-response inhibition of growth under permissive conditions (AID 850);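 further: growth read as optical density after one day of incubation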", "settings": "Saccharomyces cerevisiae growth inhibition, permissive control; measured here: maximum growth inhibition; at 3.125 µM; stronger effect = higher value", "units": {"inhibition": "%"}, "values": [
      {"smiles": "CCCOC(=O)c1ccc(Oc2cn[nH]c2-c2ccc(OCC)cc2O)cc1", "inhibition": 34.6},
      {"smiles": "CC(=O)N1N=C(c2ccc(Cl)cc2)OC1(C)C", "inhibition": 41},
      {"smiles": "O=S(=O)(Nc1ccc(-c2csc(-c3ccccc3)n2)cc1)c1ccc(F)cc1", "inhibition": 34.3},
      {"smiles": "CS(=O)(=O)N1CCN(C(=O)c2ccccc2F)CC1", "inhibition": 34.8}
    ]},
    {"system": "not listed separately", "assay": "yeast lifespan-shortening chemical project counter-assay, dose-response inhibition of growth under permissive conditions (AID 850);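 further: growth read as optical density after one day of incubation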", "settings": "Saccharomyces cerevisiae growth inhibition, permissive control; measured here: maximum growth inhibition; at 12.5 µM; stronger effect = higher value", "units": {"inhibition": "%"}, "values": [
      {"smiles": "COc1ccc2nc(NC(=S)N(C)C)sc2c1", "inhibition": 35},
      {"smiles": "Cn1c2ccccc2c(=O)n2c(=O)c3ccccc3cc12", "inhibition": 30.2},
      {"smiles": "Cc1onc(-c2ccccc2)c1C(=O)NC(=S)NNC(=O)c1ccc(O)cc1O", "inhibition": 44.7},
      {"smiles": "Cc1ccc2nc(-c3ccc(NS(=O)(=O)c4ccc(F)c(F)c4)cc3)sc2c1", "inhibition": 39.1},
      {"smiles": "COc1ccc(-n2c(Cc3cccn3C)nnc2SCC(=O)N2CCCC2)cc1", "inhibition": 37.7},
      {"smiles": "N/C(=N\\OC(=O)c1ccc(Cl)cc1Cl)c1ccccc1", "inhibition": 32.3}
    ]},
    {"system": "not listed separately", "assay": "yeast lifespan-shortening chemical project counter-assay, dose-response inhibition of growth under permissive conditions (AID 850);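 further: growth read as optical density after one day of incubation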", "settings": "Saccharomyces cerevisiae growth inhibition, permissive control; measured here: maximum growth inhibition; at 25 µM; stronger effect = higher value", "units": {"inhibition": "%"}, "values": [
      {"smiles": "N#CCSc1nc2ccccc2c2nc3ccccc3n12", "inhibition": 39.2},
      {"smiles": "COc1ccc(N/N=C(\\C#N)C(N)=O)cc1", "inhibition": 36.4},
      {"smiles": "Oc1c(Cl)cc(Cl)cc1Sc1cc(Cl)cc(Cl)c1O", "inhibition": 40.3},
      {"smiles": "O=C(c1c[nH]c(C(=O)C(Cl)(Cl)Cl)c1)c1ccccc1Cl", "inhibition": 46.3},
      {"smiles": "O=C1c2ccccc2C(=O)C1c1ccc2ccccc2n1", "inhibition": 30.6},
      {"smiles": "Cc1c2cc(O)c(=O)cc-2oc2cc(O)c(O)cc12", "inhibition": 39.9},
      {"smiles": "O=c1c2c([N+](=O)[O-])cc([N+](=O)[O-])cc2sn1-c1ccc(Br)cc1", "inhibition": 36.1},
      {"smiles": "O=C(Cc1cccs1)NNC(=S)NC(=O)c1ccccc1", "inhibition": 41},
      {"smiles": "Cc1cc(C)c2c(N=NN3CCCCC3)[nH]nc2n1", "inhibition": 39.3},
      {"smiles": "OCCN(CCO)CC(O)COc1ccc(C23CC4CC(CC(C4)C2)C3)cc1", "note": "(stereo not drawn)", "inhibition": 35.6},
      {"smiles": "Cc1cc(C)c2c(N=NN(C)C)[nH]nc2n1", "inhibition": 35.6},
      {"smiles": "CCc1cc2c(cc(C(=O)O)n2C)s1", "inhibition": 48.3},
      {"smiles": "Nc1cccc2nc3ccccc3cc12", "inhibition": 38.6}
    ]},
    {"system": "not listed separately", "assay": "yeast lifespan-shortening chemical project counter-assay, dose-response inhibition of growth under permissive conditions (AID 850);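 further: growth read as optical density after one day of incubation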", "settings": "Saccharomyces cerevisiae growth inhibition, permissive control; measured here: maximum growth inhibition; at 50 µM; stronger effect = higher value", "units": {"inhibition": "%"}, "values": [
      {"smiles": "Cc1cc(O)c(/C=N/Nc2ccccc2)c(=O)o1", "inhibition": 97.9},
      {"smiles": "O=[N+]([O-])c1ccc(N/N=C/c2ccc[nH]2)cc1", "inhibition": 5.41},
      {"smiles": "Cc1[nH]n(-c2ccccc2)c(=O)c1/C=N/Nc1nncc(-c2ccccc2)n1", "inhibition": 98.7},
      {"smiles": "Fc1ccc2nc3[nH]c4ccccc4c3nc2c1", "inhibition": 20.7},
      {"smiles": "c1cncc(-c2nnc(-c3cccnc3)nn2)c1", "inhibition": 90.5},
      {"smiles": "Cc1cccc(CSc2cccc3cccnc23)c1", "inhibition": 99.4},
      {"smiles": "CC(C)(C)c1cc(C(c2cccnc2)N2CCN(CCO)CC2)cc(C(C)(C)C)c1O", "note": "(stereo not drawn)", "inhibition": 53.3},
      {"smiles": "Cn1c(SCC(=O)Nc2ccccc2)nc(O)cc1=O", "inhibition": 76.2},
      {"smiles": "CCCCn1c(=O)c(C(=O)NCc2ccncc2)c(O)c2ccccc21", "inhibition": 41.3},
      {"smiles": "CCOc1ccc(NCc2nc3ccccc3n2CCOc2ccccc2)cc1", "inhibition": 30.3},
      {"smiles": "CCc1ccc2c(c1)C1(NN=C(c3cccc4ccccc34)S1)C(=O)N2", "note": "(stereo not drawn)", "inhibition": 32.3},
      {"smiles": "OCc1ccc(O)c2ncccc12", "inhibition": 33.1},
      {"smiles": "Oc1ccccc1NCC(O)Cn1ccc2ccccc21", "note": "(stereo not drawn)", "inhibition": 30.2},
      {"smiles": "CCOC(=O)c1cnc(-n2nc(C)cc2C)nc1NNc1cc(C)nc(-c2ccccc2)n1", "inhibition": 48.1},
      {"smiles": "COc1ccc2[nH]c3c(Cl)ncnc3c2c1", "inhibition": 35.5},
      {"smiles": "CC1CCc2c(sc3nc(CN4CCOCC4)nc(Sc4ccccc4)c23)C1", "note": "(stereo not drawn)", "inhibition": 33.9},
      {"smiles": "CCCCCC1CCC(C(=O)O)CC1", "note": "(stereo not drawn)", "inhibition": 51.8},
      {"smiles": "c1cc2c(cc1C1CCCCC1)c1c3n2CCCNC3CCC1", "note": "(stereo not drawn)", "inhibition": 38.7},
      {"smiles": "O=C(CCCSc1ccccc1)Nc1nc(-c2ccccn2)cs1", "inhibition": 39},
      {"smiles": "O=c1c2ccccc2nc2sc3ccccc3n12", "inhibition": 38.4},
      {"smiles": "Cc1ccc(N2CCOCC2)c2c1C(=O)c1ccccc1C2=O", "inhibition": 32.3},
      {"smiles": "O=Nc1c2nc3ccccc3n(O)c-2c2ccccc12", "inhibition": 37.8},
      {"smiles": "Cc1cc2c(cc(C(=O)O)n2C)s1", "inhibition": 34.3},
      {"smiles": "C=CCSC(=C(C#N)C#N)c1cc2c([nH]1)CCCC2", "inhibition": 32.9},
      {"smiles": "c1ccc(-c2ccc(-c3ccccn3)nn2)nc1", "inhibition": 36.1},
      {"smiles": "COC(=O)c1ccc2c(c1O)C(=O)c1ccccc1C2=O", "inhibition": 57.6},
      {"smiles": "Cc1cccc(Cn2ncc(Cl)c(Cl)c2=O)c1", "inhibition": 31.1},
      {"smiles": "O=[N+]([O-])c1ccc(N=Nc2ccc(O)cc2O)cc1", "inhibition": 36.3},
      {"smiles": "O=C(O)Cc1cc(I)c(Oc2ccc(O)c(I)c2)c(I)c1", "inhibition": 38.6},
      {"smiles": "O=S(=O)(Nc1ccc(-c2nc3ccccc3o2)cc1)c1ccccc1", "inhibition": 30.1},
      {"smiles": "COc1cc(/C=C2/C(=O)ON=C2c2ccccc2)ccc1O", "inhibition": 45.6},
      {"smiles": "Cc1ccc(O)c(C(=O)CC(=O)c2cccc(F)c2)c1", "inhibition": 44.8},
      {"smiles": "Cc1cc2sc(C(=O)O)c(C)c2s1", "inhibition": 57.7},
      {"smiles": "O=C(CN1CCN(c2ncc(C(F)(F)F)cc2Cl)CC1)NCCNc1ncc(C(F)(F)F)cc1Cl", "inhibition": 38.3},
      {"smiles": "Cc1nn(-c2ccccc2)c2sc(C(=O)O)cc12", "inhibition": 41.3},
      {"smiles": "O=c1c2cccc3c2c(nn1CN1CCOCC1)-c1ccccc1-3", "inhibition": 47.5},
      {"smiles": "Cc1ccc(N=Nc2ccc(O)c3ncccc23)cc1", "inhibition": 30.3},
      {"smiles": "O=C(O)c1cc2c(ccc3ccccc32)oc1=O", "inhibition": 38.3},
      {"smiles": "O=c1cccc2n1Cc1cc3ccccc3nc1-2", "inhibition": 32.4},
      {"smiles": "Cn1c(=O)c2nc(-c3ccccc3)oc2c2ccccc21", "inhibition": 38.2},
      {"smiles": "Clc1ccc2nnnc(-c3ccccc3)c2c1", "inhibition": 37.5},
      {"smiles": "Cc1cc(OCc2ccc(C(=O)NN=C3CCCC3)cc2)ccc1Cl", "inhibition": 54.2},
      {"smiles": "Cc1cc(N2CCN(C(=O)c3ccco3)CC2)n2ncc(-c3ccccc3)c2n1", "inhibition": 51.7},
      {"smiles": "COc1cccc(/C=N/N2C(=O)CSC2=S)c1O", "inhibition": 34.1},
      {"smiles": "O=C(N/N=C1\\CC2CC=CC12)c1ccc(COc2ccccc2)cc1", "note": "(stereo not drawn)", "inhibition": 35.1},
      {"smiles": "COc1ccc(NCc2ccc([N+](=O)[O-])s2)c(OC)c1", "inhibition": 43.9},
      {"smiles": "O=C(NC(Nc1nc2ccc([N+](=O)[O-])cc2s1)(C(F)(F)F)C(F)(F)F)c1ccccc1", "inhibition": 34.1},
      {"smiles": "Cc1nn(-c2ccccc2)c2sc(-c3n[nH]c(=S)o3)cc12", "inhibition": 36.1},
      {"smiles": "CN1CCN(Cc2cc(COCc3ccccc3)c3cccnc3c2O)CC1", "inhibition": 51.7},
      {"smiles": "CC(=O)c1c(C)oc2c1C(=O)c1ccccc1C2=O", "inhibition": 39.7},
      {"smiles": "CCOc1ccc(/C=C/[N+](=O)[O-])c2ccccc12", "inhibition": 33.5},
      {"smiles": "Cc1ccc(C(=O)/C=C/c2cn(CN3CCN(C)CC3)c3ccccc23)cc1", "inhibition": 34.5},
      {"smiles": "O=[N+]([O-])c1ccc(C2Oc3ccccc3C3CC(c4ccccc4)=NN32)s1", "note": "(stereo not drawn)", "inhibition": 45},
      {"smiles": "CCCCc1ccc(NS(=O)(=O)c2cccs2)cc1", "inhibition": 34.1},
      {"smiles": "O=C1CN(CC(=O)N2CCCCC2)c2ccccc2O1", "inhibition": 37.7},
      {"smiles": "CCCOC(=O)c1ccc(Oc2cn[nH]c2-c2ccc(OC)cc2O)cc1", "inhibition": 32.4},
      {"smiles": "CCOc1cc(CNCCO)cc(Br)c1OCc1ccc(Cl)cc1Cl", "inhibition": 46.1},
      {"smiles": "CC(C)N=c1scc(-c2ccco2)n1/N=C/c1ccc(O)c(O)c1", "inhibition": 36.7},
      {"smiles": "O=C(OCn1ncc(Cl)c(Cl)c1=O)c1ccccc1Cl", "inhibition": 54.5},
      {"smiles": "Cc1ccc2nc(-c3ccc(NS(=O)(=O)c4ccc(F)cc4)cc3)sc2c1", "inhibition": 42.9},
      {"smiles": "Cc1cccc(OCCCOc2cccc3cccnc23)c1C", "inhibition": 33.1},
      {"smiles": "NNC(=O)c1cccc(COc2ccc(Br)cc2)c1", "inhibition": 54.5}
    ]},
    {"system": "Saccharomyces cerevisiae growth inhibition, permissive control", "assay": "yeast lifespan-shortening chemical project counter-assay, dose-response inhibition of growth under permissive conditions (AID 850);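 further: growth read as optical density after one day of incubation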", "settings": "not given", "values": [
      {"smiles": "Cc1cc(O)c(/C=N/Nc2ccccc2)c(=O)o1", "pIC50": 4.71},
      {"smiles": "O=[N+]([O-])c1ccc(N/N=C/c2ccc[nH]2)cc1", "IC50": "> 100 µM (inactive)"},
      {"smiles": "Cc1[nH]n(-c2ccccc2)c(=O)c1/C=N/Nc1nncc(-c2ccccc2)n1", "pIC50": 4.68},
      {"smiles": "Fc1ccc2nc3[nH]c4ccccc4c3nc2c1", "IC50": "> 100 µM (inactive)"},
      {"smiles": "c1cncc(-c2nnc(-c3cccnc3)nn2)c1", "pIC50": 4.58},
      {"smiles": "Cc1cccc(CSc2cccc3cccnc23)c1", "pIC50": 4.86},
      {"smiles": "CC(C)(C)c1cc(C(c2cccnc2)N2CCN(CCO)CC2)cc(C(C)(C)C)c1O", "note": "(stereo not drawn)", "pIC50": 4.31},
      {"smiles": "Cn1c(SCC(=O)Nc2ccccc2)nc(O)cc1=O", "pIC50": 4.48}
    ]}
  ]
}
